Results as given in patent publication US9499511B2, “N-substituted hydroxylamine derivatives with carbon-based leaving groups” (The Johns Hopkins University, priority 2011, dated 2016).
Where two headings read alike, the source gives them in different places.

How the values were obtained:
[1] = pKa of carbanion byproduct (concentration of b / b-H+ as a function of pH, UV-Vis); format: physicochemical
Excerpt: FIG. 2A and FIG. 2B show a graph plotting the concentration of 4b, 4b-H^+ (FIG. 2A) and 6b, 6b-H^+ (FIG. 2B) as a function of pH. In FIG. 2A, the squares represent 4b-H^+ (λmax=298 nm), and the circles represent carbanion 4b (λmax=261 nm). In FIG. 2B, the squares represent 6b-H^+ (λmax=270 nm), where the last three data points were omitted due to spectral overlap, and the circles represent carbanion 6b (λmax=253 nm).
NMR spectra were obtained on a Bruker Avance 400 MHz FT-NMR spectrometer. All chemical shifts are reported in parts per million (ppm) relative to residual CHCl3 (7.26 ppm for ^1H, 77.23 ppm for ^13C), residual DMSO (2.50 ppm for ^1H, 39.52 for ^13C), or residual H2O (4.8 ppm for ^1H). High-resolution mass spectra were obtained on a VG Analytical VG70SE magnetic sector mass spectrometer operating in fast atom bombardment (FAB) mode. Ultraviolet-Visible (UV-Vis) absorption spectra were obtained using a Hewlett Packard 8453 diode array spectrometer. Phosphate-buffered saline (PBS) solutions (0.1 M) were prepared with 140 mM NaCl and 3 mM KCl, with 100 μM diethylenetriaminepentaacetic acid (DTPA), adjusted to pH 7.4. Buffered solutions (0.1 M) for UV-Vis experiments were prepared from HCl/NaCl (pH 1.7), AcOH/AcONa (pH 3.0, 3.5, 4.0, 4.5, 5.0, 5.5), or NaPO3H2/Na2PO3H (pH 6.0, 6.5, 7.0, 8.0, 9.0, 9.5, 9.8, 10.0, 10.5, 10.6).

[2] = test system: Sprague-Dawley rats; experiment: Acute cardiovascular effects, pressure-volume (PV) loop analysis in anesthetized rats; format: in vivo, rat; details: IV infusion 100 μg/kg/min, 5 rats
Description: The acute cardiovascular effects of compounds 4a and 6a, when administered intravenously to Sprague-Dawley rats at an infusion rate of 100 μg/kg/min, were examined by means of pressure-volume (PV) curve (loops) analysis. PV families/relationships were generated via pre-load variation and hemodynamic indices were compared to baseline values. Each test article was administered to 5 rats.
Rats were intraperitoneally (IP) anesthetized to effect with pentobarbital (˜50 mg/kg), shaved and positioned in dorsal recumbence, endotracheally intubated and ventilated […], ˜2.5 mL tidal volume with 95% O2/5% CO2) with an adjustable small animal ventilator (Harvard Apparatus). Anesthesia was maintained with a continuous pentobarbital infusion (to effect, ˜3 to 5 mg/kg/h, IV) until completion of the experiment via an indwelling catheter placed in a femoral vein. Subsequently, transthoracic needle electrodes forming a single-lead ECG were placed. For LV mechano-energetic evaluation, the right carotid artery was isolated, dissected free from the surrounding tissue, and cannulated with a 2F high-fidelity conductance/micromanometer catheter (Millar Instruments). This catheter was advanced retrograde across the aortic valve and into the LV chamber in order to simultaneously determine left-ventricular pressure and volume (via conductivity). […] Meanwhile, in order to record arterial pressures, a 2F high-fidelity micromanometer catheter (Millar Instruments) was inserted into a femoral artery and advanced towards the abdominal aorta. Finally, an in-dwelling catheter was placed into the jugular vein for administration of test article.
Following collection of baseline hemodynamic data, infusion of test article was initiated at an infusion rate of 100 μg/kg/min; at 10 μL/min. Pressure-volume analyses were performed again approximately 30 min and 45 min after the initiation of the dose.
The resulting left-ventricular pressure and volume data was analyzed offline (IOX/ECG Auto; EMKA Technologies) in order to generate relationships representing the contractile and energetic state of the myocardium. Systolic (SAP), diastolic (DAP), and mean (MAP) arterial pressures were collected. Left-ventricular mechanical and/or geometrical indices were obtained from the pressure (ESP, EDP, dP/dt max/min, time-constant of relaxation—tau [based on mono-exponential decay with non-zero asymptote]) and volume (ESV, EDV, SV) signal. In addition, the following measurements were derived from left-ventricular pressure-volume data (PV loops) generated during brief periods of preload reduction: • Pressure volume area (PVA) and stroke work (SW). • End-systolic (ESPVR) and end-diastolic (EDPVR) pressure volume relationships. • End systolic pressure and stroke volume relationship (Arterial Elastance, Ea).
Data are presented as means with standard errors (mean±SEM) in Table 6.

[3] = Decomposition kinetics monitored by UV-Vis spectroscopy; format: physicochemical; details: PBS, pH 7.4, Condition A: pH 7.4, 37° C., 0.1M PBS, 100 μL DTPA, air (UV/Vis)
[4] = N2O headspace analysis (GC) of HNO production, relative to Angeli's salt; format: physicochemical
Description: Nitrous oxide is produced via the dimerization and dehydration of HNO, and is the most common marker for HNO production (Fukuto, J. M. et al., Chem. Res. Toxicol. 2005, 18, 790-801).
Gas chromatography was performed on a Varian CP-3800 instrument equipped with a 1041 manual injector, electron capture detector, and a 25 m 5 Å molecular sieve capillary column. Grade 5.0 nitrogen was used as both the carrier (8 mL/min) and the make-up (22 mL/min) gas. The injector oven and the detector oven were kept at 200° C. and 300° C., respectively. All nitrous oxide analyses were performed with the column oven held constant at 150° C. All gas injections were made using a 100 μL gastight syringe with a sample-lock. Samples were prepared in 15 mL amber headspace vials with volumes pre-measured for sample uniformity (actual vial volume ranges from 15.19-15.20 mL). Vials were charged with 5 mL of PBS buffer containing DTPA, purged with argon, and sealed with a rubber septum. The vials were equilibrated for at least 10 minutes at 37° C. in a dry block heater. A 10 mM stock solution of Angeli's salt (AS) was prepared in 10 mM sodium hydroxide, and HNO donors 1a-4a, 6a (10 mM) were prepared in acetonitrile or methanol and used immediately after preparation. From these stock solutions, 50 μL was introduced into individual thermally-equilibrated headspace vials using a gastight syringe, yielding final substrate concentrations of 0.1 mM. Substrates were then incubated long enough to ensure complete decomposition and equilibration of N2O with the headspace. The headspace (60 μL) was then sampled and injected five successive times using a gastight syringe with a sample lock. This was repeated for n≧3 vials per donor. The nitrous oxide yield was averaged and reported relative to the standard, Angeli's salt. For chemical trapping of HNO, glutathione (100 μL of 10 mM in PBS) was added prior to HNO donor addition to give a final glutathione concentration of 0.2 mM, and headspace sampling for N2O was analogously performed as stated above.

[5] = Decomposition kinetics monitored by UV-Vis spectroscopy; format: physicochemical
Description: NMR spectra were obtained on a Bruker Avance 400 MHz FT-NMR spectrometer. […] High-resolution mass spectra were obtained on a VG Analytical VG70SE magnetic sector mass spectrometer operating in fast atom bombardment (FAB) mode. […] Phosphate-buffered saline (PBS) solutions (0.1 M) were prepared with 140 mM NaCl and 3 mM KCl, with 100 μM diethylenetriaminepentaacetic acid (DTPA), adjusted to pH 7.4.

In the case of “5-(acetyl-O-methoxyoxime)-N,N-dimethylbarbituric acid [Compound 4b]”, the pKa of byproduct [1] is reported as “ca. 4.2”.

With `CO/N=C(\C)C1(NO)C(=O)N(c2ccccc2)N=C1C` (stereo not shown) [Compound 6a, 4-(N-hydroxylamine)-4-(acetyl-O-methoxyoxime)-N-phenyl-5-methyl-pyrazolone] the “Mean Blood Pressure” value ([2]; baseline 124 (4a) / 138 (6a)) was 111 mmHg, the “Stroke Volume” value ([2]; mean, baseline 1 (4a) / 2.2 (6a)) was 2.4 relative volume units and the “End Diastolic Pressure Volume Relationship” value ([2]; mean, baseline 1.7 (4a) / 1.8 (6a)) was 1.5. The “End Diastolic Pressure” value ([2]; mean, baseline 4.7 (4a) / 4.4 (6a)) was 3.6 mmHg, the Tau ([2]; mean, baseline 8.5 (4a) / 8.7 (6a)) was 8.6 ms and the “Arterial Elastance” value ([2]; mean, baseline 9.2 (4a) / 7.4 (6a)) was 5.7. The “End Diastolic Volume” value ([2]; mean, baseline 14.6 (4a) / 19.2 (6a)) was 20 relative volume units, the “End Systolic Pressure Volume Relationship” value ([2]; mean, baseline 28.1 (4a) / 23.7 (6a)) was 31 and the “Pre-Load Recruitable Stroke Work” value ([2]; mean, baseline 37.6 (4a) / 42.8 (6a)) was 58.2. For the same compound, the “Diastolic Blood Pressure” value ([2]; mean, baseline 109 (4a) / 121 (6a)) was 97 mmHg, the “Stroke Work” value ([2]; mean, baseline 112 (4a) / 227 (6a)) was 185 relative volume units × mmHg and the “End Systolic Pressure” value ([2]; mean, baseline 134 (4a) / 141 (6a)) was 113 mmHg. The “Systolic Blood Pressure” value ([2]; mean, baseline 147 (4a) / 160 (6a)) was 130 mmHg, the “Pressure Volume Area” value ([2]; mean, baseline 343 (4a) / 590 (6a)) was 318 and the “Heart Rate” value ([2]; mean, baseline 365 (4a) / 340 (6a)) was 332 bp, m. For the same compound, the “Left Ventricular +dP/dt” value ([2]; mean, baseline 6392 (4a) / 7689 (6a)) was 6044 mmHg/s, the “Left Ventricular −dP/dt” value ([2]; mean, baseline −7585 (4a) / −8257 (6a)) was −6549 mmHg/s and the half-life [3] was 9.5 min. For the same compound, the “HNO / N2O production (in words)” value ([4]; decomposition at pH 7.4) was “efficiently produces HNO”, the “% HNO” value ([4]; donor 0.1 mM, 37° C., PBS pH 7.4, yield relative to Angeli's salt by N2O headspace analysis, SEM ±5%, n = 3) was 110% and the half-life ([5]; AcOH/AcONa buffer, pH 4, pH 4.0, room temperature, read-out: half-life (converted)) was ~1500 min. For the same compound, the half-life ([5]; PBS, pH 7.4, footnote c not given, pH 7.4, 37° C., read-out: t1/2) was 9.5 min, the half-life ([5]; PBS, pH 7.4, pH 7.4 and 37° C., read-out: half-life (converted)) was ~10 min and the “pH near which the decomposition rate sharply increases” value ([5]; decomposition rate as a function of pH at 25° C., UV-Vis) was ~10.
